{
  "source": "ChEMBL document CHEMBL3745684",
  "about": "“Synthesis of a norcantharidin-tethered guanosine: Protein phosphatase-1 inhibitors that change alternative splicing” (Bioorg Med Chem Lett, 2016)",
  "assay_type_in_all_cases": "cell-based",
  "key": {"[1]": {"system": "HEK293", "experiment": "Inhibition of protein phosphatase-1 in human HEK293 cells assessed as exon 7 inclusion in the survival of motor neuron 2 gene at 1 to 100 uM after 14 to 16 hrs by RT-PCR analysis"}, "[2]": {"system": "HEK293", "experiment": "Inhibition of protein phosphatase-1 in human HEK293 cells assessed as increase in exon 7 inclusion in the survival of motor neuron 2 gene at 10 to 100 uM after 14 to 16 hrs by RT-PCR analysis"}, "[3]": {"system": "HEK293", "experiment": "Inhibition of protein phosphatase-1 in human HEK293 cells assessed as increase in exon 7 inclusion in the survival of motor neuron 2 gene after 14 to 16 hrs by RT-PCR analysis"}},
  "note": "Active and inactive are the calls of the source. The rule behind the calls is not given here.",
  "data": [
    {"smiles": "CNCCc1ccc(CCO)cc1", "values": [
      {"measurement": "inhibition", "setting": "[1]", "result": "inactive"}
    ]},
    {"smiles": "CO[C@@H]1[C@H](OP(=O)(O)OCCc2ccc(CCN(C)C(=O)[C@H]3[C@@H](C(=O)O)[C@@H]4CC[C@H]3O4)cc2)[C@@H](CO)O[C@H]1n1cnc2c(=O)[nH]c(N)nc21", "note": "(mixture of isomers)", "values": [
      {"measurement": "Activity", "setting": "[2]", "result": 25, "unit": "%"},
      {"measurement": "Activity", "setting": "[3]", "result": "Dose-dependent effect"}
    ]}
  ]
}
